Measured values as given in article PMC11808539 (Bioorganic & medicinal chemistry letters, 2024).

Experiments:
GSK-3 = GSK-3 inhibition, isoform not stated; type: biochemical; settings: no activity defined as an IC50 >10μM
broad kinase screen = settings: cited from earlier work
[1] = tested on: other kinases tested having a lysine at a position comparable to Arg141 in GSK-3β; settings: kinases with lysine at position comparable to Arg141; at 2 μM; cited from earlier work
MAPK5/PRAK = settings: at 2μM; cited from earlier work

With `OC1(c2ccccc2)CSC(=S)N1Cc1ccccc1` (stereo not drawn) [Compound 3a] the “activity (GSK-3 inhibition, in words)” value (GSK-3) was “no activity”.
For `OC1(c2ccccc2)CSC(=S)N1Cc1ccncc1` (stereo not drawn) [Compound 3c], the “kinase selectivity (in words)” value (broad kinase screen) is listed as “the only kinases significantly inhibited by 3c were GSK-3β and GSK-3α”, the “% inhibition” value [1] is listed as less than 30% and the “% inhibition” value (MAPK5/PRAK) is listed as 60%. The “activity (GSK-3 inhibition, in words)” value (GSK-3) was “excellent activity”.
For `OC1(c2ccccc2)CSC(=S)N1Cc1ccccn1` (stereo not drawn) [Compound 3d], the “activity (GSK-3 inhibition, in words)” value (GSK-3) was “no activity”.
